Reference: patent US20230277612A1, “SAPONIN DERIVATIVES FOR USE IN MEDICINE” (priority 2020, published 2023)
Like-named read-outs stand apart in the source and are kept apart here. [BNA] = bridged nucleic acid sugar (2',4'-BNA), type not further given; d = 2'-deoxy (DNA)

Assays:
HSP27 mRNA [1] = experiment: HSP27 mRNA gene silencing analysis in SK-BR-3 cells; assay type: cell-based; details: in the presence of 4000 nM or 4829 nM SO1861-Ald-EMCH; read-out: IC50(SK-BR3) HSP27 gene silencing
Source text: (§1) RNA from cells was isolated and analysed according to standard protocols (Biorad). qPCR primers that were used are indicated in Table A10.

[2] = Critical micellar concentration (CMC) by ANS fluorescence; assay type: physicochemical; details: PBS
Outline: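 Saponin solutions (dry-weight concentrations 1–1400 μM) in purified water or Dulbecco's PBS+/+ were mixed with ANS, 75.86 μM, 6 μg per sample. ANS fluorescence was read at 355 nm excitation and 460 nm emission. CMC was taken from the rise in ANS fluorescence yield as the dye partitions into micelles.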

[3] = test system: EGFR expressing cells (A431); experiment: Saponin titration on fixed 10 pM cetuximab-saporin, cell viability (MTS); assay type: cell-based; details: without cetuximab-saporin
A2058 (EGFR−) cells = experiment: Saponin derivative titration in presence and absence of […] EGFdianthin, cell viability; assay type: cell-based; details: Homo sapiens, read-out: Toxicity as single compound
HeLa (EGFR+) cells = experiment: Saponin titration in presence and absence of […] EGFdianthin, cell viability; assay type: cell-based; details: Homo sapiens, read-out: General toxicity (IC50 / highest concentration)
Protocol: To extend this test, saponins from other sources were analyzed. A saponin purified from a root extract of Gypsophila elegans M.Bieb. […] FIG. 63C).

[4] = test system: EGFR expressing cells (HeLa); assay type: cell-based; details: HeLa; + 5 pM EGFdianthin; read-out: IC50 endosomal escape enhancing activity
[5] = test system: EGFR expressing cells (A431); experiment: Saponin titration on fixed 10 pM EGFdianthin, cell viability (MTS); assay type: cell-based; details: without EGFdianthin
A431 (EGFR++) cells = experiment: Saponin derivative titration in presence and absence of […] EGFdianthin, cell viability; assay type: cell-based; details: Homo sapiens, A-431; read-out: Toxicity as single compound
A431 cells = experiment: cells; assay type: cell-based; details: Homo sapiens
Protocol: (§2) (FIGS. 66a and 66B). Next toxicity was determined, for this the modified saponins were titrated on HeLa and A431 cells. […] Next toxicity was determined, for this the modified saponins were titrated on HeLa and A431 cells.

HeLa cells [6] = experiment: cells; assay type: cell-based; details: Homo sapiens, HeLa
Protocol: as §2

human red blood cells = experiment: cells; assay type: cell-based; details: Homo sapiens, Erythrocyte
Protocol: Red blood cells (RBCs) were isolated from a buffy coat using a Ficoll gradient. The obtained RBC pellet (˜4-5 ml) was washed 2× with 50 ml DPBS (without Ca^2+/Mg^2+, PAN-Biotech GmbH). Cells were pelleted by centrifugation for 10 min, 800×g at RT. RBC were counted and resuspended at 500.000.000 c/ml in DPBS (without Ca^2+/Mg^2+), based on total cell count.
(§3) Saponin dilutions were prepared in DPBS (with Ca^2+/Mg^2+, PAN-Biotech GmbH), at 1.11× final strength. For positive lysis control a 0.02% Triton-X100 solution was prepared in DPBS^+/+. Of all compound solutions 135 μl was dispensed/well in a 96 well V-bottom plate. To this 15 μl RBC suspension was added and mixed shortly (10 sec-600 rpm). The plate was incubated 30 min at RT, with gentle agitation. Afterwards the plate was spun for 10 min at 800×g to pellet the RBC and 100-120 μl supernatant was transferred to a standard 96 wp (96 well-plate).
as §3, with “DPBS+/+.” for “DPBS^+/+.”

HSP27 mRNA [7] = experiment: HSP27 mRNA gene silencing analysis in A431 cells; assay type: cell-based; details: SO1861-Ald-EMCH alone
Source text: as §1

HeLa cells [8] = experiment: Pilot cell-based bioassay: 10 μg/ml saponin with or without 1.5 pM dianthin-EGF, 72 h, relative cell viability; parameters: key to Cell killing activity (+ or −): Cell killing activity (+ or −); Cell killing activity (+ or −)
Protocol: HeLa cells were incubated for 72 h with the following constructs and cell viability before and after the 72 h-incubation was assessed. In the experiments, cells were exposed to 1.5 pM dianthin-EGF conjugate. A negative control were cells incubated with buffer vehicle and 10 microgram/ml saponin, without dianthin-EGF. Cell viability was set to 100% for the control in which both saponin and EGF-dianthin were omitted. […] Cell viability after 72 h was essentially 0%. For the chemically modified saponin variants, 10 microgram/ml saponin was tested in combination with 1.5 pM dianthin-EGF.

[9] = pH dependent hydrolysis of the hydrazone bond (HCl solution pH 3, MALDI-TOF-MS); assay type: physicochemical; details: HCl solution at pH 3

Row | Molecule | IC50 (HSP27 mRNA [1]) | CMC value [2] | Cell killing activity of saponin alone [3] | IC50 (A2058 (EGFR−) cells) | IC50 (HeLa (EGFR+) cells) | IC50 [4] | Cell killing activity of saponin alone [5] | IC50 (A431 (EGFR++) cells) | IC50 (A431 cells; A-431, Table A6, saponin alone, read-out: IC50 nM (Toxicity)) | IC50 (A431 cells; A-431, text, saponin alone, read-out: IC50 toxicity) | IC50 (HeLa cells [6]; Table A5, saponin alone, read-out: IC50 nM (Toxicity)) | IC50 (HeLa cells [6]; saponin alone, read-out: IC50 toxicity) | IC50 (human red blood cells; Table A5, read-out: IC50 nM (hemolysis)) | IC50 (human red blood cells; Table A6, read-out: IC50 nM (hemolysis)) | IC50 (human red blood cells; read-out: IC50 hemolytic activity) | HSP27 gene silencing activity alone (HSP27 mRNA [7]) | Cell killing activity (+ or −) (HeLa cells [8]; 10 μg/ml SO1861 or SO1861-derivative + […] EGFdianthin) | Cell killing activity (+ or −) (HeLa cells [8]; 10 μg/ml SO1861 or SO1861-derivative alone) | Cell viability after 72 h (HeLa cells [8]; 10 microgram/ml saponin + […] dianthin-EGF, HeLa cells) | Hydrolysis of the hydrazone bond [9]
1 | HSP27BNA: antisense BNA oligo against HSP27 mRNA, 5′-GGCacagccagtgGCG-3′ (antisense GGCACAGCCAGTGGCG; sugars from the 5' end [BNA]3 d10 [BNA]3, backbone and methylation of C not given here) | 0.002 µM |  |  |  |  |  |  |  |  |  |  |  |  |  |  |  |  |  |  | 
2 | CC(=O)OC1C(C)OC(OC2C(C)OC(OC(=O)[C@]34CCC(C)(C)CC3C3=CCC5[C@@]6(C)CC[C@H](OC7OC(C(=O)O)C(O)C(OC8OCC(O)C(O)C8O)C7OC7OC(CO)C(O)C(O)C7O)[C@@](C)(/C=N/NC(=O)CCCCCN7C(=O)C=CC7=O)C6CC[C@@]5(C)[C@]3(C)C[C@H]4O)C(OC3OC(C)C(OC4OCC(O)C(OC5OC(CO)C(O)C(O)C5O)C4O)C(O)C3O)C2O)C(O)C1OC1OCC(O)C(O)C1O (some centres unmarked) [SO1861-Ald-EMCH] |  | > 800 µM | no cell killing activity | > 25 µM | > 25 µM | 2 µM | no cell killing activity | > 25 µM | 30000 nM | 30000 nM | > 100000 nM | > 100000 nM | > 1e+06 nM | > 1e+06 nM | > 1e+06 nM | no HSP27 gene silencing activity | + | − | reduced cell viability | gets cleaved
